Source: paper PMC6494957 (Frontiers in Microbiology, 2019)
Values after ≈ are worked out from the molar mass of the structure shown.

Experiments:
MDCK cell line = assay: In vitro cytotoxicity, WST-1; type: cell-based, canine; conditions: Canis lupus familiaris, 10% FBS, read-out: IC50, single agent
Description: Cells were maintained in Dulbecco’s modified Eagle’s medium (DMEM) with 10% fetal bovine serum (FBS) and 1% PenStrep (100 U/mL Penicillin and 100 μg/mL Streptomycin) at 37°C with 5% CO2. Cells were serially passaged at ∼80% confluence ∼ every 4 days. Assays were performed in duplicate in 96 well plates seeded with ∼25,000 cells per well. […] Briefly, the antimicrobials were prepared by performing a twofold serial dilution at 100× of tested concentration in DMSO. Subsequently, a 1 μl aliquot of each concentration was transferred to a sterile 96-well plate containing fresh DMEM with either 10% FBS. After mixing four times, the media aliquots with different concentrations of antimicrobial were transferred to each well of the 96-well plate seeded with cells, using wells containing 1–2% DMSO only as control. To determine the effect of FBS on the cytotoxicity of each compound, DMEM with 40% FBS containing different concentrations of antimicrobial was prepared as described above. After 24 h of exposure, WST-1 reagent (Cell Proliferation Assay reagent, Roche) at a concentration of 10% was added to each well. Absorbance at A450 nm on a Multiskan Ascent 354 Spectrophotometer (Labsystems) was measured after 1 h of incubation. The IC50 value was determined for each compound against each cell line via non-linear regression (three parameters) using GraphPad Prism v6 software.

clinical MRSA = system: clinical MRSA; design: method as in Abraham et al., 2016; Ogunniyi et al., 2017; conditions: ref Abraham et al., 2016, Ogunniyi et al., 2017; cited from earlier work
S. pneumoniae strains = system: S. pneumoniae strains; design: method as in Abraham et al., 2016; Ogunniyi et al., 2017; conditions: ref Abraham et al., 2016, Ogunniyi et al., 2017; cited from earlier work
S. aureus ATCC 29213 = assay: MIC broth microdilution, quality control strain; type: cell-based; conditions: Staphylococcus aureus, ATCC29213; S. aureus ATCC 29213, quality control strain
Description: Luria Bertani (LB) broth (Oxoid, Australia) was applied for MIC testing in lieu of cation-adjusted Mueller–Hinton broth as robenidine has been previously shown to chelate calcium ions. Furthermore, a twofold serial dilution of robenidine was performed in 100% DMSO, with 1 μl dispensed to each well due to the hydrophobicity of the compound ([Abraham et al., 2016]). The MIC for ampicillin or gentamicin against each isolate was determined for each test to serve as an internal quality control. The MICs of isolates were determined by visual reading and using an EnSpire Multimode Plate Reader 2300 atA600nm.

Structure (SMILES)	IC50 (MDCK cell line) [mM]	effective concentrations (MIC range) (clinical MRSA) [µg/mL]	effective concentrations (MIC range) (S. pneumoniae strains) [µg/mL]	MIC (S. aureus ATCC 29213) [µg/mL]
O=C(O)CN(CCN(CC(=O)O)CC(=O)O)CC(=O)O [EDTA, ethylenediaminetetraacetic acid]	3.4			
N=C(N/N=C/c1ccc(Cl)cc1)N/N=C/c1ccc(Cl)cc1 [ROB, robenidine]		1 to 2	2 to 8	2 (≈ 5.98 µM)
